Measurements published in BigSolDB 2.1.

Cc1c(N)c(=O)n(-c2ccccc2)n1C
solubility (mole fraction)
Details	in acetone	in ethanol	in ethyl acetate	in isopropanol	in methanol	in n-butanol	in n-propanol	in sec-butanol	in water
299.05 K	0.37	0.22	0.08	0.19	0.23	0.15	0.21	0.14	0.13
303.15 K	0.4	0.25	0.09	0.22	0.25	0.17	0.24	0.16	0.15
307.25 K	0.43	0.28	0.11	0.25	0.28	0.19	0.28	0.18	0.17
311.05 K	0.44	0.31	0.13	0.29	0.31	0.21	0.31	0.2	0.19
315.15 K	0.47	0.35	0.15	0.32	0.34	0.24	0.35	0.23	0.22
321.05 K	0.52	0.41	0.2	0.38	0.39	0.29	0.41	0.27	0.27
327.15 K	0.55	0.48	0.25	0.45	0.44	0.34	0.46	0.31	0.33
338.35 K	0.62	0.6	0.36	0.57	0.57	0.46	0.59	0.41	0.44
